Test results published in ChEMBL document CHEMBL1201862, “PubChem BioAssay data set” (2004).
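How tested: cells in 96-well plates exposed to compound for 48 hours at five concentrations. GI50 marks 50% less growth.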 The source made the active and inactive calls. No stated cut-off is given here; in the data, active = GI50 up to about 1.1 µM and inactive = higher.

Legend:
Test in all cases: NCI-60 cell line screen, 48 h
A549 = tested on: A549
HCC 2998 = tested on: HCC 2998
M14 = tested on: M14
MCF7 = tested on: MCF7
MDA-MB-231 = tested on: MDA-MB-231
MDA-MB-435 = tested on: MDA-MB-435
MDA-N = tested on: MDA-N
NCI-H23 = tested on: NCI-H23
SK-MEL-2 = tested on: SK-MEL-2
SK-MEL-5 = tested on: SK-MEL-5
SR = tested on: SR
SW-620 = tested on: SW-620
NCI-H522 = tested on: NCI-H522
SF-539 = tested on: SF-539
SN12C = tested on: SN12C
Hs-578T = tested on: Hs-578T
BT-549 = tested on: BT-549

Measured: GI50

COc1ccc2c(c1)CC[C@@H]1[C@@H]2CC[C@]2(C)C(=O)/C(=C/c3ccc(O)c(OC)c3)C[C@@H]12
inactive: A549 51.6 µM | HCC 2998 31.6 µM | M14 35.6 µM | MCF7 60.4 µM | MDA-MB-231 37.2 µM | MDA-MB-435 32 µM | MDA-N 57.1 µM | NCI-H23 77.1 µM | SK-MEL-2 69.2 µM | SK-MEL-5 33.9 µM | SR 32.2 µM | SW-620 58.2 µM

CS/C1=C(\c2ccc(C)cc2)N(c2ccccc2)C(=O)C(=O)N(c2ccccc2)/C(c2ccc(C)cc2)=C(/SC)SS1
inactive: HCC 2998 > 100 µM | M14 82.8 µM | MCF7 > 100 µM | MDA-MB-231 > 100 µM | MDA-MB-435 > 100 µM | MDA-N > 100 µM | NCI-H23 > 100 µM | NCI-H522 > 100 µM | SF-539 > 100 µM | SK-MEL-2 > 100 µM | SN12C > 100 µM | SR > 100 µM | SW-620 > 100 µM

CN(C)/N=C1\CC(c2ccccc2)C(C#N)(C#N)C1(C#N)C#N (centres undefined)
inactive: A549 36.4 µM | HCC 2998 18.7 µM | Hs-578T 29.7 µM | M14 17.4 µM | MCF7 29.9 µM | MDA-MB-231 21.7 µM | MDA-MB-435 27.6 µM | MDA-N 20.8 µM | NCI-H23 24.1 µM | NCI-H522 12.2 µM | SF-539 41.4 µM | SK-MEL-2 21 µM | SK-MEL-5 11.6 µM | SN12C 20.8 µM | SR 18.5 µM | SW-620 6.61 µM

CC(CC[C@@]1(C)C(=O)CCC2O[C@]21C)[C@H]1C[C@@H](c2ccoc2)OC1=O (some centres undefined)
inactive: A549 > 100 µM | HCC 2998 > 100 µM | Hs-578T 39.3 µM | M14 72.9 µM | MCF7 65.6 µM | MDA-MB-435 44.1 µM | MDA-N 57.1 µM | NCI-H23 61.4 µM | NCI-H522 3.17 µM | SF-539 35.7 µM | SK-MEL-2 > 100 µM | SK-MEL-5 > 100 µM | SN12C 27.8 µM | SR 97.9 µM | SW-620 31.9 µM

O=C1c2cc3c(cc2CC12Cc1ccc4c(c1C2=O)CCC4)CCC3 (centres undefined)
inactive: A549 > 100 µM | HCC 2998 > 100 µM | Hs-578T > 100 µM | M14 > 100 µM | MCF7 > 100 µM | MDA-MB-231 > 100 µM | MDA-MB-435 > 100 µM | MDA-N > 100 µM | NCI-H23 > 100 µM | NCI-H522 > 100 µM | SF-539 > 100 µM | SK-MEL-2 > 100 µM | SK-MEL-5 > 100 µM | SR > 100 µM | SW-620 > 100 µM

CC(CC(C)[C@H]1CCC2[C@H]3C(CC[C@@]21C)[C@@]1(C)CCC(O)C[C@H]1C[C@@H]3O)C(=O)O (some centres undefined)
inactive: A549 > 100 µM | BT-549 > 100 µM | HCC 2998 > 100 µM | M14 > 100 µM | MCF7 > 100 µM | MDA-MB-231 > 100 µM | MDA-MB-435 > 100 µM | MDA-N > 100 µM | NCI-H23 > 100 µM | NCI-H522 > 100 µM | SF-539 > 100 µM | SK-MEL-2 > 100 µM | SN12C > 100 µM | SR > 100 µM | SW-620 > 100 µM

COC(=O)C1CC2CC1C1C2SC(F)(F)C1(F)F (centres undefined)
inactive: A549 > 100 µM | HCC 2998 > 100 µM | Hs-578T > 100 µM | M14 > 100 µM | MCF7 > 100 µM | MDA-MB-231 > 100 µM | MDA-MB-435 > 100 µM | MDA-N > 100 µM | NCI-H522 > 100 µM | SF-539 > 100 µM | SK-MEL-2 > 100 µM | SK-MEL-5 > 100 µM | SN12C > 100 µM | SR > 100 µM | SW-620 > 100 µM

[O-]/[N+](=N/c1ncc(-c2ccccc2)cn1)c1ncc(-c2ccccc2)cn1
inactive: A549 > 100 µM | HCC 2998 > 100 µM | Hs-578T > 76.6 µM | M14 > 100 µM | MCF7 36 µM | MDA-MB-231 > 100 µM | MDA-MB-435 40.5 µM | MDA-N > 100 µM | NCI-H23 > 100 µM | NCI-H522 14.8 µM | SF-539 > 65.2 µM | SK-MEL-2 > 100 µM | SK-MEL-5 42.7 µM | SN12C > 100 µM | SR 16.4 µM | SW-620 > 95.7 µM

CN1CCCOC(c2ccc([N+](=O)[O-])cc2)O1 (centres undefined)
inactive: A549 > 100 µM | BT-549 > 100 µM | HCC 2998 > 100 µM | M14 > 100 µM | MCF7 > 100 µM | MDA-MB-231 > 100 µM | MDA-MB-435 > 100 µM | MDA-N > 100 µM | NCI-H23 > 100 µM | NCI-H522 > 100 µM | SF-539 > 100 µM | SK-MEL-2 > 100 µM | SK-MEL-5 > 100 µM | SN12C > 100 µM | SR > 100 µM | SW-620 > 100 µM

CSc1nncc2[nH]c(C)nc12
inactive: A549 > 100 µM | BT-549 > 100 µM | HCC 2998 > 100 µM | M14 > 100 µM | MCF7 > 100 µM | MDA-MB-231 > 100 µM | MDA-MB-435 > 100 µM | MDA-N > 100 µM | NCI-H23 > 100 µM | NCI-H522 > 100 µM | SF-539 > 100 µM | SK-MEL-2 > 100 µM | SK-MEL-5 > 100 µM | SN12C > 100 µM | SW-620 > 100 µM

CC[C@@]12CCC(=S)N(CCSc3ccccc3)[C@@H]1c1c(n(S(=O)(=O)c3ccc(OC)cc3)c3ccccc13)CC2
inactive: A549 > 100 µM | BT-549 48.1 µM | Hs-578T > 100 µM | M14 > 100 µM | MCF7 > 100 µM | MDA-MB-231 > 100 µM | MDA-MB-435 > 100 µM | NCI-H23 > 100 µM | NCI-H522 > 100 µM | SF-539 88.1 µM | SK-MEL-2 > 100 µM | SK-MEL-5 > 100 µM | SN12C > 100 µM | SR > 100 µM | SW-620 > 100 µM

O=C1C[C@@]23CCC4(CC2CCC[C@H]3O1)OCCO4 (some centres undefined)
inactive: A549 > 100 µM | HCC 2998 > 100 µM | Hs-578T > 100 µM | M14 > 100 µM | MCF7 > 100 µM | MDA-MB-231 > 100 µM | MDA-MB-435 > 100 µM | MDA-N > 100 µM | NCI-H23 > 100 µM | NCI-H522 > 100 µM | SF-539 > 100 µM | SK-MEL-2 > 100 µM | SK-MEL-5 > 100 µM | SN12C > 100 µM | SR > 100 µM | SW-620 > 100 µM

CCOC(=O)C(Cl)(NC(=O)OCc1ccccc1)C(F)(F)F (centres undefined)
inactive: A549 > 100 µM | HCC 2998 > 100 µM | Hs-578T > 100 µM | M14 > 100 µM | MCF7 > 100 µM | MDA-MB-231 > 100 µM | MDA-MB-435 > 100 µM | MDA-N > 100 µM | NCI-H23 > 100 µM | NCI-H522 > 100 µM | SF-539 > 100 µM | SK-MEL-2 > 100 µM | SK-MEL-5 > 100 µM | SN12C > 100 µM | SW-620 > 100 µM
